# In patent US10441628B2, “High activity tumour inhibitor and preparation method and use thereof” (BAO KANG BIOMEDICAL HEALTHCARE INC, priority 2014, dated 2019):
# Where two headings read alike, the source gives them in different places. Positions of bridges follow the written chain, without caps; N, C: chain ends. Non-standard residues stand in square brackets, D forms with d. Residues, ends and D or L forms follow the SMILES beside them. No end group written: not given here. *: point of attachment. Phe(3-Cl) = N[C@@H](Cc1cccc(Cl)c1)C(=O)O; Stearoyl = CCCCCCCCCCCCCCCCCC(=O)*; hCys = N[C@@H](CCS)C(=O)O; Nle = CCCC[C@H](N)C(=O)O; Orn = NCCC[C@H](N)C(=O)O; Dab = NCC[C@H](N)C(=O)O
# Columns and labels:
# [1] = plasma
# Method: (§4) For the YAP inhibitory polypeptides modified in above (a) and (b), the IC50 values for TEAD binding and the stability in plasma were measured.
# [2] = Cell penetration or infiltration of polypeptides; format: cell-based; conditions: penetration of the peptide with RRMKWKK taken as 100%
# Description: In this example, the sequence was modified based on SEQ ID NO.: 1. Some preferred modification based on the tested results included: adding a disulfide linkage within the peptide, or adding a cell-penetrating element.
# [3] = tested on: HCCLM3; format: cell-based
# Method: (§1) The hepatoma cell line BEL7404 (purchased from The Chinese Academy of Sciences cell bank) was a cell line with high expression of YAP protein; HCCLM3 (purchased from The Chinese Academy of Sciences cell bank) was a cell line with low expression of YAP protein. The hepatoma cell lines (BEL7404 or HCCLM3) were inoculated into a 96-well plate at the concentration of 2000 cells/well, and incubated overnight in RPMI1640 containing 1% bovine serum at 37° C. The hepatoma cell lines were treated with polypeptides having different concentrations at 37° C. for 72 h.
# (§2) Moreover, IC50 values of the cells in 1.1 were determined using CCK-8 kit.
# (§3) The polypeptide represented by SEQ ID NO.:1 was further modified. The IC50 values of the polypeptides at a concentration of 1% in cell cultivating for 72 h were measured.
# [4] = tested on: BEL7404; format: cell-based
# Method: as §1, §2, §3
# [5] = tested on: BEL7404; test: Cell proliferation inhibition of BEL7404 by liposome formulations / acylated polypeptides, CCK-8; format: cell-based
# [6] = tested on: MHCC97L; test: Cell proliferation inhibition of MHCC97L by liposome formulations / acylated polypeptides, CCK-8; format: cell-based
# Method: MHCC97L (ATCC) cells were seeded in 96-well plates with 10% FBS DMEM medium at a density of 4000 cells/well and incubated overnight at 37° C. […] The cell viability was determined by CCK-8 kit.
# [7] = Stability in plasma (residual peptide)
# Method: as §4
# [8] = biological target: TEAD (UniProt P28347); test: TEAD binding (TR-FRET test)
# Chain of TEAD (P28347 whole entry): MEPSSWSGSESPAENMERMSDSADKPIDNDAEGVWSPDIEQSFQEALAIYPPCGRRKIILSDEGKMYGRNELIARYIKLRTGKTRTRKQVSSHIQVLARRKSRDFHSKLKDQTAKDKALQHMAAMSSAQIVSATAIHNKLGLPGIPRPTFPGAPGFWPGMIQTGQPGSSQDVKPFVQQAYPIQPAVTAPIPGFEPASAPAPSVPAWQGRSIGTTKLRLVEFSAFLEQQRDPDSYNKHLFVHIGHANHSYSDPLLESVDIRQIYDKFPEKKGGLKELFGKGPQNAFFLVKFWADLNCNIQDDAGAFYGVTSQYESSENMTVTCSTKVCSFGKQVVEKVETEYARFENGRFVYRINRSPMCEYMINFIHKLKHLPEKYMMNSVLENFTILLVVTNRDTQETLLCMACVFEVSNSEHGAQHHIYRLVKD
# Method: The interaction of the two molecules makes the two fluorophores close to each other and generate energy transfer, and then fluoresce at specific wavelength is transmitted.
# The sequences of the modified peptides were represented by SEQ ID NOs.: 8 and 9. The IC50 values for TEAD binding and stability in plasma were measured.
# The modified polypeptides were tested to measure IC50 values for TEAD binding and stability in plasma.
# [9] = in vitro; conditions: plasma
# Method: as §4
compound,measurement,setting,value
"3: Peptide (SEQ ID NO.: 1) + Cell-penetrating element 1 (RRMKWKK, SEQ ID NO.: 13) (VPMRLRKLPDSFFKPPERRMKWKK; cell penetrating element; listed as Homo sapiens) [Peptide 3]",Stability (4 h),[1],49%
same,Percentage of Cell penetration or infiltration,[2],100%
"4: Peptide (SEQ ID NO.: 1) + Cell-penetrating element 2 (RGRKKRRQRRR, SEQ ID NO.: 14) (VPMRLRKLPDSFFKPPERGRKKRRQRRR; cell penetrating element; listed as Homo sapiens) [Peptide 4]",Percentage of Cell penetration or infiltration,[2],135%
32 (VPXLXKKXPASFKCPPRRMKWKK; (3)..(3) Xaa=(3Cl-)F; (5)..(5) Xaa=Hcy; (8)..(8) Xaa=Nle) [compound 32],IC50,"[3]; concentration of 1% in cell cultivating for 72 h, read-out: IC50 HCCLM3",319 ± 17.5 µM
same,IC50,"[4]; concentration of 1% in cell cultivating for 72 h, read-out: IC50 BEL7404",38.4 ± 3.8 µM
CCCCCCCCCCCCCCCCCC(=O)NCCCC[C@H](NC(=O)[C@@H]1CSSCC[C@H](NC(=O)[C@H](CCCCN)NC(=O)[C@H](CCCCN)NC(=O)[C@H](CC(C)C)NC(=O)[C@H](Cc2cccc(Cl)c2)NC(=O)[C@@H]2CCCN2C(=O)[C@@H](NC(C)=O)C(C)C)C(=O)N[C@@H](CCCC)C(=O)N2CCC[C@H]2C(=O)N[C@@H](C)C(=O)N[C@@H](CO)C(=O)N[C@@H](Cc2ccccc2)C(=O)N[C@@H](CCCCN)C(=O)N2CCC[C@H]2C(=O)N2CCC[C@H]2C(=O)N1)C(N)=O [P49 polypeptide] (Ac-VP[Phe(3-Cl)]LKK[hCys][Nle]PASFKPPCK(Stearoyl)-NH2; disulfide 7-16),IC50,[5],2.02 ± 0.39 µM
same,IC50,[6],7.83 ± 2.69 µM
CSCC[C@H](NC(=O)[C@@H]1CCCN1C(=O)[C@@H](N)C(C)C)C(=O)N[C@H]1CCSSC[C@@H](C(=O)N[C@@H](CCCCN)C(=O)N2CCC[C@H]2C(=O)N2CCC[C@H]2C(=O)N[C@@H](CCC(=O)O)C(=O)O)NC(=O)[C@H](Cc2ccccc2)NC(=O)[C@H](CO)NC(=O)[C@H](CC(=O)O)NC(=O)[C@@H]2CCCN2C(=O)[C@H](CC(C)C)NC(=O)[C@H](CCCCN)NC(=O)[C@H](CCCNC(=N)N)NC(=O)[C@H](CC(C)C)NC1=O [Peptide 2],remaining at 4 h,"[7]; plasma, Stability (4 h), plasma, percentage of residual peptides after 4 h",93%
same,Percentage of Cell penetration or infiltration,[2],8%
CSCC[C@H](NC(=O)[C@@H]1CCCN1C(=O)[C@@H](N)C(C)C)C(=O)N[C@@H](CCCNC(=N)N)C(=O)N[C@@H](CC(C)C)C(=O)N[C@@H](CCCNC(=N)N)C(=O)N[C@@H](CCCCN)C(=O)N[C@@H](CC(C)C)C(=O)N1CCC[C@H]1C(=O)N[C@@H](CC(=O)O)C(=O)N[C@@H](CO)C(=O)N[C@@H](Cc1ccccc1)C(=O)N[C@@H](Cc1ccccc1)C(=O)N[C@@H](CCCCN)C(=O)N1CCC[C@H]1C(=O)N1CCC[C@H]1C(=O)N[C@@H](CCC(=O)O)C(=O)O [SEQ ID NO.: 1],IC50,[3]; 72 h,809 ± 27.4 µM
same,IC50,[4]; 72 h,388 ± 43.6 µM
same,stability (in words),[7],low stability
same,remaining at 4 h,[7]; plasma,0%
same,Stability (>24 h),"[7]; plasma, percentage of residual peptides after >24 h",0%
CC(C)C[C@@H]1NC(=O)[C@@H](NC(=O)[C@H](Cc2ccccc2)NC(=O)[C@@H]2CCCN2C(=O)[C@@H](N)C(C)C)CCSSC[C@@H](C(=O)N[C@@H](CCCCN)C(=O)N2CCC[C@H]2C(=O)N2CCC[C@H]2C(=O)N[C@@H](CCC(=O)O)C(=O)O)NC(=O)[C@H](Cc2ccccc2)NC(=O)[C@H](CO)NC(=O)[C@H](CC(=O)O)NC(=O)[C@@H]2CCCN2C(=O)[C@H](CC(C)C)NC(=O)[C@H](CCCN)NC(=O)[C@H](CCCNC(=N)N)NC1=O [compound 5] (H-VPF[hCys]LR[Orn]LPDSFCKPPE-OH; disulfide 4-13 (inferred); N-terminus and C-terminus assumed),IC50,[8],0.043 µM
same,remaining at 4 h,[9],99%
CC(C)C[C@@H]1NC(=O)[C@@H](NC(=O)[C@H](Cc2ccccc2)NC(=O)[C@@H]2CCCN2C(=O)[C@@H](N)C(C)C)CCSSC[C@@H](C(=O)N[C@@H](CCCCN)C(=O)N2CCC[C@H]2C(=O)N2CCC[C@H]2C(=O)N[C@@H](CCC(=O)O)C(=O)O)NC(=O)[C@H](Cc2ccccc2)NC(=O)[C@H](CO)NC(=O)[C@H](CC(=O)O)NC(=O)[C@@H]2CCCN2C(=O)[C@H](CC(C)C)NC(=O)[C@H](CCN)NC(=O)[C@H](CCCNC(=N)N)NC1=O [compound 6] (H-VPF[hCys]LR[Dab]LPDSFCKPPE-OH; disulfide 4-13 (inferred); N-terminus and C-terminus assumed),IC50,[8],0.028 µM
same,remaining at 4 h,[9],98%
CSCC[C@H](NC(=O)[C@@H]1CCCN1C(=O)[C@@H](N)C(C)C)C(=O)N[C@H]1CSSC[C@@H](C(=O)N[C@@H](Cc2c[nH]cn2)C(=O)N2CCC[C@H]2C(=O)N2CCC[C@H]2C(=O)N[C@@H](CCC(=O)O)C(=O)O)NC(=O)[C@H](Cc2ccccc2)NC(=O)[C@H](CO)NC(=O)[C@H](CCC(=O)O)NC(=O)[C@@H]2CCCN2C(=O)[C@H](CC(C)C)NC(=O)[C@H](CCCCN)NC(=O)[C@H](CCCNC(=N)N)NC(=O)[C@H](CC(C)C)NC1=O [compound 8] (H-VPMCLRKLPESFCHPPE-OH; disulfide 4-13; N-terminus and C-terminus assumed),IC50,[8],0.028 µM
same,remaining at 4 h,[9],105%
CSCC[C@H](NC(=O)[C@@H]1CCCN1C(=O)[C@@H](N)C(C)C)C(=O)N[C@H]1CCSSC[C@@H](C(=O)N[C@@H](CC(=O)O)C(=O)N2CCC[C@H]2C(=O)N2CCC[C@H]2C(=O)N[C@@H](CCC(=O)O)C(=O)O)NC(=O)[C@H](Cc2ccccc2)NC(=O)[C@H](CO)NC(=O)[C@H](CS)NC(=O)[C@@H]2CCCN2C(=O)[C@H](CC(C)C)NC(=O)[C@H](CCCCN)NC(=O)[C@H](CCCNC(=N)N)NC(=O)[C@H](CC(C)C)NC1=O [compound 9] (H-VPM[hCys]LRKLPCSFCDPPE-OH; disulfide 4-13),IC50,[8],0.025 µM
same,remaining at 4 h,[9],100%
PAGWEMAKTSSGQRYF [compound 20],IC50,[3]; 72 h,> 1000 µM
same,IC50,[4]; 72 h,444 ± 46.5 µM
PQGQGPPSGPGQPAPA [compound 16],IC50,[3]; 72 h,> 1000 µM
same,IC50,[4]; 72 h,242 ± 27.2 µM
